Measured values as given in patent US9540356B2 (priority 2012, dated 2017).

What was measured:
HeLa cells [1] = assay: cells; assay type: cell-based; conditions: Homo sapiens
[2] = test system: retrograde transport of Shiga toxin subunit B (StxB); assay type: cell-based
HeLa cells [3] = assay type: cell-based, human

CN1c2ccccc2C(=O)N(c2ccccc2)C1c1ccc(-c2ccco2)s1 (stereo not shown) [Compound 40, 2-(5-(Furan-2-yl)thiophen-2-yl)-1-methyl-3-phenyl-2,3-dihydroquinazolin-4(1H)-one]
IC50 (HeLa cells [1]): 1500 nM | retrograde transport, % control [2]: 5.3% | R (Stx), protective index (HeLa cells [3]): 27

CCc1ccc(C2N(C)c3ccccc3C(=O)N2c2ccccc2)s1 (stereo not shown) [Compound 41, 2-(5-Ethylthiophen-2-yl)-1-methyl-3-phenyl-2,3-dihydroquinazolin-4(1H)-one]
retrograde transport, % control [2]: 0.0% | R (Stx), protective index (HeLa cells [3]): 173

Cc1nc(-c2ccc(C3N(C)c4ccccc4C(=O)N3c3ccccc3)s2)cs1 (stereo not shown) [Compound 42, 1-Methyl-2-(5-(2-methylthiazol-4-yl)thiophen-2-yl)-3-phenyl-2,3-dihydroquinazolin-4(1H)-one]
retrograde transport, % control [2]: 0.0% | R (Stx), protective index (HeLa cells [3]): 85
